From PubChem BioAssay AID2060494 (Molecular Pharmacology Branch, DTP, NCI, 2025) come the findings set out here.

Each structure is given as a SMILES string.
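Further: spheroids exposed to the agents for seven days before readout; percent of vehicle control viability with DMSO wells as 100%.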

In the first assay the test system is 435261-313-R-J1-PDC complex spheroid viability. In words: Anticancer human tumor 435261-313-R-J1-PDC patient-derived colon adenocarcinoma cell line growth inhibition [GQUAD]. Conditions: second compound 0.316 µM; first compound 1 µM; stronger effect = lower value. Put shortly: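 Tumor cells were grown as complex spheroids with HUVEC endothelial cells and mesenchymal stem cells as stroma. G-quadruplex stabilizers were combined with targeted agents over half-log dilutions from near the clinical Cmax, or from 10 microM.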
As for `COc1cc(C2c3cc4c(cc3C(OC3OC5COC(C)OC5C(O)C3O)C3COC(=O)C23)OCO4)cc(OC)c1O` (configuration not stated) + CN(C)c1ccc(Nc2c3ccc(NC(=O)CCN4CCCC4)cc3nc3cc(NC(=O)CCN4CCCC4)ccc23)cc1, the viability, T/C was 71%.
Take `COc1cccc2c1C(=O)c1c(O)c3c(c(O)c1C2=O)CC(O)(C(=O)CO)CC3OC1CC(N)C(O)C(C)O1` (configuration not stated) + CN(C)c1ccc(Nc2c3ccc(NC(=O)CCN4CCCC4)cc3nc3cc(NC(=O)CCN4CCCC4)ccc23)cc1: the viability, T/C is 31.5%.
The same measure, in the same setting: the figure for `Nc1ccn(C2OC(CO)C(O)C2(F)F)c(=O)n1` (configuration not stated) + CN(C)c1ccc(Nc2c3ccc(NC(=O)CCN4CCCC4)cc3nc3cc(NC(=O)CCN4CCCC4)ccc23)cc1 is 68.3%; for `O=c1[nH]cc(F)c(=O)[nH]1` + CN(C)c1ccc(Nc2c3ccc(NC(=O)CCN4CCCC4)cc3nc3cc(NC(=O)CCN4CCCC4)ccc23)cc1 it is 97.2%.

Still in this assay, the particulars now being: second compound 0.316 µM; first compound 3.16 µM; stronger effect = lower value.
As for `COc1cc(C2c3cc4c(cc3C(OC3OC5COC(C)OC5C(O)C3O)C3COC(=O)C23)OCO4)cc(OC)c1O` (configuration not stated) + CN(C)c1ccc(Nc2c3ccc(NC(=O)CCN4CCCC4)cc3nc3cc(NC(=O)CCN4CCCC4)ccc23)cc1, the viability, T/C was 91.6%.
In the case of `COc1cccc2c1C(=O)c1c(O)c3c(c(O)c1C2=O)CC(O)(C(=O)CO)CC3OC1CC(N)C(O)C(C)O1` (configuration not stated) + CN(C)c1ccc(Nc2c3ccc(NC(=O)CCN4CCCC4)cc3nc3cc(NC(=O)CCN4CCCC4)ccc23)cc1, the viability, T/C was 2.47%.
Take `Nc1ccn(C2OC(CO)C(O)C2(F)F)c(=O)n1` (configuration not stated) + CN(C)c1ccc(Nc2c3ccc(NC(=O)CCN4CCCC4)cc3nc3cc(NC(=O)CCN4CCCC4)ccc23)cc1: the viability, T/C was 76.9%.
Regarding `O=c1[nH]cc(F)c(=O)[nH]1` + CN(C)c1ccc(Nc2c3ccc(NC(=O)CCN4CCCC4)cc3nc3cc(NC(=O)CCN4CCCC4)ccc23)cc1, the viability, T/C was 111%.

The same assay, now with this note: second compound 0.316 µM; first compound 10 µM; stronger effect = lower value.
As for `COc1cc(C2c3cc4c(cc3C(OC3OC5COC(C)OC5C(O)C3O)C3COC(=O)C23)OCO4)cc(OC)c1O` (configuration not stated) + CN(C)c1ccc(Nc2c3ccc(NC(=O)CCN4CCCC4)cc3nc3cc(NC(=O)CCN4CCCC4)ccc23)cc1, the viability, T/C was 74.4%.
Turning to `COc1cccc2c1C(=O)c1c(O)c3c(c(O)c1C2=O)CC(O)(C(=O)CO)CC3OC1CC(N)C(O)C(C)O1` (configuration not stated) + CN(C)c1ccc(Nc2c3ccc(NC(=O)CCN4CCCC4)cc3nc3cc(NC(=O)CCN4CCCC4)ccc23)cc1, the viability, T/C is 2.91%.
Same read-out and setting: the figure for `Nc1ccn(C2OC(CO)C(O)C2(F)F)c(=O)n1` (configuration not stated) + CN(C)c1ccc(Nc2c3ccc(NC(=O)CCN4CCCC4)cc3nc3cc(NC(=O)CCN4CCCC4)ccc23)cc1 is 67.8%.
Still for that read-out and setting: the figure for `O=c1[nH]cc(F)c(=O)[nH]1` + CN(C)c1ccc(Nc2c3ccc(NC(=O)CCN4CCCC4)cc3nc3cc(NC(=O)CCN4CCCC4)ccc23)cc1 is 85.8%.

The same assay, now with this note: second compound 1 µM; first compound 0.0316 µM; stronger effect = lower value.
On to `COc1cc(C2c3cc4c(cc3C(OC3OC5COC(C)OC5C(O)C3O)C3COC(=O)C23)OCO4)cc(OC)c1O` (configuration not stated) + CN(C)c1ccc(Nc2c3ccc(NC(=O)CCN4CCCC4)cc3nc3cc(NC(=O)CCN4CCCC4)ccc23)cc1, for which the viability, T/C was 78.9%.
On to `COc1cccc2c1C(=O)c1c(O)c3c(c(O)c1C2=O)CC(O)(C(=O)CO)CC3OC1CC(N)C(O)C(C)O1` (configuration not stated) + CN(C)c1ccc(Nc2c3ccc(NC(=O)CCN4CCCC4)cc3nc3cc(NC(=O)CCN4CCCC4)ccc23)cc1, for which the viability, T/C is 83%.
Consider `Nc1ccn(C2OC(CO)C(O)C2(F)F)c(=O)n1` (configuration not stated) + CN(C)c1ccc(Nc2c3ccc(NC(=O)CCN4CCCC4)cc3nc3cc(NC(=O)CCN4CCCC4)ccc23)cc1, for which the viability, T/C is 79.9%.
On the same count and under the same terms, as for `O=c1[nH]cc(F)c(=O)[nH]1` + CN(C)c1ccc(Nc2c3ccc(NC(=O)CCN4CCCC4)cc3nc3cc(NC(=O)CCN4CCCC4)ccc23)cc1, the figure is 118%.

The same assay, now with this note: second compound 1 µM; first compound 0.1 µM; stronger effect = lower value.
`COc1cc(C2c3cc4c(cc3C(OC3OC5COC(C)OC5C(O)C3O)C3COC(=O)C23)OCO4)cc(OC)c1O` (configuration not stated) + CN(C)c1ccc(Nc2c3ccc(NC(=O)CCN4CCCC4)cc3nc3cc(NC(=O)CCN4CCCC4)ccc23)cc1: the viability, T/C was 91.4%.
In the case of `COc1cccc2c1C(=O)c1c(O)c3c(c(O)c1C2=O)CC(O)(C(=O)CO)CC3OC1CC(N)C(O)C(C)O1` (configuration not stated) + CN(C)c1ccc(Nc2c3ccc(NC(=O)CCN4CCCC4)cc3nc3cc(NC(=O)CCN4CCCC4)ccc23)cc1, the viability, T/C was 69.8%.
Same read-out and setting: the figure for `Nc1ccn(C2OC(CO)C(O)C2(F)F)c(=O)n1` (configuration not stated) + CN(C)c1ccc(Nc2c3ccc(NC(=O)CCN4CCCC4)cc3nc3cc(NC(=O)CCN4CCCC4)ccc23)cc1 is 78.2%.
Consider `O=c1[nH]cc(F)c(=O)[nH]1` + CN(C)c1ccc(Nc2c3ccc(NC(=O)CCN4CCCC4)cc3nc3cc(NC(=O)CCN4CCCC4)ccc23)cc1, for which the viability, T/C is 91.8%.

Staying with this assay, now noted: second compound 1 µM; first compound 0.316 µM; stronger effect = lower value.
Regarding `COc1cc(C2c3cc4c(cc3C(OC3OC5COC(C)OC5C(O)C3O)C3COC(=O)C23)OCO4)cc(OC)c1O` (configuration not stated) + CN(C)c1ccc(Nc2c3ccc(NC(=O)CCN4CCCC4)cc3nc3cc(NC(=O)CCN4CCCC4)ccc23)cc1, the viability, T/C was 74.3%.
As to `COc1cccc2c1C(=O)c1c(O)c3c(c(O)c1C2=O)CC(O)(C(=O)CO)CC3OC1CC(N)C(O)C(C)O1` (configuration not stated) + CN(C)c1ccc(Nc2c3ccc(NC(=O)CCN4CCCC4)cc3nc3cc(NC(=O)CCN4CCCC4)ccc23)cc1, the viability, T/C was 58.7%.
In the case of `Nc1ccn(C2OC(CO)C(O)C2(F)F)c(=O)n1` (configuration not stated) + CN(C)c1ccc(Nc2c3ccc(NC(=O)CCN4CCCC4)cc3nc3cc(NC(=O)CCN4CCCC4)ccc23)cc1, the viability, T/C was 74.5%.
As to `O=c1[nH]cc(F)c(=O)[nH]1` + CN(C)c1ccc(Nc2c3ccc(NC(=O)CCN4CCCC4)cc3nc3cc(NC(=O)CCN4CCCC4)ccc23)cc1, the viability, T/C was 98.5%.

Still in this assay, the particulars now being: second compound 1 µM; first compound 1 µM; stronger effect = lower value.
As to `COc1cc(C2c3cc4c(cc3C(OC3OC5COC(C)OC5C(O)C3O)C3COC(=O)C23)OCO4)cc(OC)c1O` (configuration not stated) + CN(C)c1ccc(Nc2c3ccc(NC(=O)CCN4CCCC4)cc3nc3cc(NC(=O)CCN4CCCC4)ccc23)cc1, the viability, T/C was 76.4%.
For the compound `COc1cccc2c1C(=O)c1c(O)c3c(c(O)c1C2=O)CC(O)(C(=O)CO)CC3OC1CC(N)C(O)C(C)O1` (configuration not stated) + CN(C)c1ccc(Nc2c3ccc(NC(=O)CCN4CCCC4)cc3nc3cc(NC(=O)CCN4CCCC4)ccc23)cc1, the viability, T/C is 31.9%.
Take `Nc1ccn(C2OC(CO)C(O)C2(F)F)c(=O)n1` (configuration not stated) + CN(C)c1ccc(Nc2c3ccc(NC(=O)CCN4CCCC4)cc3nc3cc(NC(=O)CCN4CCCC4)ccc23)cc1: the viability, T/C is 68.1%.
On the same count and under the same terms, the figure for `O=c1[nH]cc(F)c(=O)[nH]1` + CN(C)c1ccc(Nc2c3ccc(NC(=O)CCN4CCCC4)cc3nc3cc(NC(=O)CCN4CCCC4)ccc23)cc1 is 104%.

The same assay, now with this note: second compound 1 µM; first compound 3.16 µM; stronger effect = lower value.
In the case of `COc1cc(C2c3cc4c(cc3C(OC3OC5COC(C)OC5C(O)C3O)C3COC(=O)C23)OCO4)cc(OC)c1O` (configuration not stated) + CN(C)c1ccc(Nc2c3ccc(NC(=O)CCN4CCCC4)cc3nc3cc(NC(=O)CCN4CCCC4)ccc23)cc1, the viability, T/C is 71.1%.
Consider `COc1cccc2c1C(=O)c1c(O)c3c(c(O)c1C2=O)CC(O)(C(=O)CO)CC3OC1CC(N)C(O)C(C)O1` (configuration not stated) + CN(C)c1ccc(Nc2c3ccc(NC(=O)CCN4CCCC4)cc3nc3cc(NC(=O)CCN4CCCC4)ccc23)cc1, for which the viability, T/C was 1.79%.
On to `Nc1ccn(C2OC(CO)C(O)C2(F)F)c(=O)n1` (configuration not stated) + CN(C)c1ccc(Nc2c3ccc(NC(=O)CCN4CCCC4)cc3nc3cc(NC(=O)CCN4CCCC4)ccc23)cc1, for which the viability, T/C is 78.8%.
Turning to `O=c1[nH]cc(F)c(=O)[nH]1` + CN(C)c1ccc(Nc2c3ccc(NC(=O)CCN4CCCC4)cc3nc3cc(NC(=O)CCN4CCCC4)ccc23)cc1, the viability, T/C was 81.8%.

The assay is the same for the next values; noted with them: second compound 1 µM; first compound 10 µM; stronger effect = lower value.
As to `COc1cc(C2c3cc4c(cc3C(OC3OC5COC(C)OC5C(O)C3O)C3COC(=O)C23)OCO4)cc(OC)c1O` (configuration not stated) + CN(C)c1ccc(Nc2c3ccc(NC(=O)CCN4CCCC4)cc3nc3cc(NC(=O)CCN4CCCC4)ccc23)cc1, the viability, T/C is 57.1%.
On to `COc1cccc2c1C(=O)c1c(O)c3c(c(O)c1C2=O)CC(O)(C(=O)CO)CC3OC1CC(N)C(O)C(C)O1` (configuration not stated) + CN(C)c1ccc(Nc2c3ccc(NC(=O)CCN4CCCC4)cc3nc3cc(NC(=O)CCN4CCCC4)ccc23)cc1, for which the viability, T/C was 3.08%.
On to `Nc1ccn(C2OC(CO)C(O)C2(F)F)c(=O)n1` (configuration not stated) + CN(C)c1ccc(Nc2c3ccc(NC(=O)CCN4CCCC4)cc3nc3cc(NC(=O)CCN4CCCC4)ccc23)cc1, for which the viability, T/C was 66.5%.
As for `O=c1[nH]cc(F)c(=O)[nH]1` + CN(C)c1ccc(Nc2c3ccc(NC(=O)CCN4CCCC4)cc3nc3cc(NC(=O)CCN4CCCC4)ccc23)cc1, the viability, T/C was 73.5%.

Staying with this assay, now noted: second compound 3.16 µM; first compound 0.0316 µM; stronger effect = lower value.
With `COc1cc(C2c3cc4c(cc3C(OC3OC5COC(C)OC5C(O)C3O)C3COC(=O)C23)OCO4)cc(OC)c1O` (configuration not stated) + CN(C)c1ccc(Nc2c3ccc(NC(=O)CCN4CCCC4)cc3nc3cc(NC(=O)CCN4CCCC4)ccc23)cc1, the viability, T/C was 62.6%.
Turning to `COc1cccc2c1C(=O)c1c(O)c3c(c(O)c1C2=O)CC(O)(C(=O)CO)CC3OC1CC(N)C(O)C(C)O1` (configuration not stated) + CN(C)c1ccc(Nc2c3ccc(NC(=O)CCN4CCCC4)cc3nc3cc(NC(=O)CCN4CCCC4)ccc23)cc1, the viability, T/C is 46.8%.
Turning to `Nc1ccn(C2OC(CO)C(O)C2(F)F)c(=O)n1` (configuration not stated) + CN(C)c1ccc(Nc2c3ccc(NC(=O)CCN4CCCC4)cc3nc3cc(NC(=O)CCN4CCCC4)ccc23)cc1, the viability, T/C is 68.7%.
For the compound `O=c1[nH]cc(F)c(=O)[nH]1` + CN(C)c1ccc(Nc2c3ccc(NC(=O)CCN4CCCC4)cc3nc3cc(NC(=O)CCN4CCCC4)ccc23)cc1, the viability, T/C is 73.3%.

Staying with this assay, now noted: second compound 3.16 µM; first compound 0.1 µM; stronger effect = lower value.
As for `COc1cc(C2c3cc4c(cc3C(OC3OC5COC(C)OC5C(O)C3O)C3COC(=O)C23)OCO4)cc(OC)c1O` (configuration not stated) + CN(C)c1ccc(Nc2c3ccc(NC(=O)CCN4CCCC4)cc3nc3cc(NC(=O)CCN4CCCC4)ccc23)cc1, the viability, T/C is 69.2%.
Still for that read-out and setting: as for `COc1cccc2c1C(=O)c1c(O)c3c(c(O)c1C2=O)CC(O)(C(=O)CO)CC3OC1CC(N)C(O)C(C)O1` (configuration not stated) + CN(C)c1ccc(Nc2c3ccc(NC(=O)CCN4CCCC4)cc3nc3cc(NC(=O)CCN4CCCC4)ccc23)cc1, the figure is 62.5%.

What is called viability, T/C is the ratio of treated to control.
